Measurements: ChEMBL document CHEMBL3603764, “Structure-activity relationship of N-benzenesulfonyl matrinic acid derivatives as a novel class of coxsackievirus B3 inhibitors” (Bioorg Med Chem Lett, 2015)

Experiments:
[1] = Cytotoxicity against African green monkey Vero cells assessed as growth inhibition after 48 hrs; format: cell-based; conditions: chlorocebus sabaeus, read-out: TC50
Coxsackievirus B3 = assay: Antivirus activity against Coxsackievirus B3 infected in African green monkey vero cells assessed as inhibition of virus-induced cytopathic effect; format: functional, organism-based; conditions: Enterovirus B
[2] = Selectivity index, ratio of TC50 for African green monkey vero cells to IC50 for Coxsackievirus B3; format: toxicity, cell-based; conditions: read-out: Selectivity Index

Row | Structure (SMILES) | IC50 (Coxsackievirus B3) [µM] | CC50 at 48 h [1] [µM] | selectivity ratio [2]
1 | CN1CCN(CCCC[C@@H]2[C@H]3CCCN4CCC[C@@H](CN2S(=O)(=O)c2cccc(C#N)c2)[C@@H]34)CC1 | > 22.2 | 116 | 
2 | CN1CCN(CCCC[C@@H]2[C@H]3CCCN4CCC[C@@H](CN2S(=O)(=O)c2ccc(C#N)cc2)[C@@H]34)CC1 | > 22.2 |  | 
3 | N#Cc1ccc(S(=O)(=O)N2C[C@@H]3CCCN4CCC[C@@H]([C@H]34)[C@H]2CCCCN2CCOCC2)cc1 | > 22.2 | 96.2 | 
4 | CN1CCN(CCCC[C@@H]2[C@H]3CCCN4CCC[C@@H](CN2S(=O)(=O)c2cccc(C(F)(F)F)c2)[C@@H]34)CC1 | > 7.4 | 51.5 | 
5 | CN1CCN(CCCC[C@@H]2[C@H]3CCCN4CCC[C@@H](CN2S(=O)(=O)c2ccc(S(C)(=O)=O)cc2)[C@@H]34)CC1 | > 22.2 |  | 
6 | COCCCC[C@@H]1[C@H]2CCCN3CCC[C@@H](CN1S(=O)(=O)c1cccc(C#N)c1)[C@@H]23 | 8.41 | 332 | 39.5
7 | COCCCC[C@@H]1[C@H]2CCCN3CCC[C@@H](CN1S(=O)(=O)c1cccc(C(F)(F)F)c1)[C@@H]23 | 1.31 | 75.4 | 57.4
8 | COC(=O)CCC[C@@H]1[C@H]2CCCN3CCC[C@@H](CN1S(=O)(=O)c1ccc(OC(F)(F)F)cc1)[C@@H]23 | 14.7 | 191 | 13
9 | O=S(=O)(c1ccc(OC(F)(F)F)cc1)N1C[C@@H]2CCCN3CCC[C@@H]([C@H]23)[C@H]1CCCCO | 10 | 101 | 10.1
10 | O=C(O)CCC[C@@H]1[C@H]2CCCN3CCC[C@@H](CN1S(=O)(=O)c1ccc(OC(F)(F)F)cc1)[C@@H]23 | > 127 | > 380 | 
11 | O=C(CCC[C@@H]1[C@H]2CCCN3CCC[C@@H](CN1S(=O)(=O)c1cccc(C(F)(F)F)c1)[C@@H]23)N1CCOCC1 | 3.95 | 156 | 38.9
12 | NC(=O)CCC[C@@H]1[C@H]2CCCN3CCC[C@@H](CN1S(=O)(=O)c1cccc(C(F)(F)F)c1)[C@@H]23 | 4.33 | 177 | 40.8
13 | CNC(=O)CCC[C@@H]1[C@H]2CCCN3CCC[C@@H](CN1S(=O)(=O)c1cccc(C(F)(F)F)c1)[C@@H]23 | 2.56 | 172 | 67.2
14 | CN(C)C(=O)CCC[C@@H]1[C@H]2CCCN3CCC[C@@H](CN1S(=O)(=O)c1cccc(C(F)(F)F)c1)[C@@H]23 | 2.49 | 168 | 67.2
15 | O=C(CCC[C@@H]1[C@H]2CCCN3CCC[C@@H](CN1S(=O)(=O)c1ccc(OC(F)(F)F)cc1)[C@@H]23)N1CCOCC1 | 7.19 | 162 | 22.5
16 | O=C(CCC[C@@H]1[C@H]2CCCN3CCC[C@@H](CN1S(=O)(=O)c1ccc(OC(F)(F)F)cc1)[C@@H]23)N1CCC1 | 5.58 | 170 | 21.2

Further lines, with some results ahead:

Row | IC50 (Coxsackievirus B3) [µM] | Structure (SMILES) | CC50 at 48 h [1] [µM] | selectivity ratio [2]
17 | > 22.2 | CN(C)CCCC[C@@H]1[C@H]2CCCN3CCC[C@@H](CN1S(=O)(=O)c1ccc(C#N)cc1)[C@@H]23 | 96.2 | 
18 | > 22.2 | CC(=O)c1ccc(S(=O)(=O)N2C[C@@H]3CCCN4CCC[C@@H]([C@H]34)[C@H]2CCCCN2CCN(C)CC2)cc1 |  | 
19 | > 22.2 | CC(=O)c1ccc(S(=O)(=O)N2C[C@@H]3CCCN4CCC[C@@H]([C@H]34)[C@H]2CCCCN2CCOCC2)cc1 |  | 
20 | > 22.2 | CC(=O)c1ccc(S(=O)(=O)N2C[C@@H]3CCCN4CCC[C@@H]([C@H]34)[C@H]2CCCCN(C)C)cc1 |  | 
21 | > 22.2 | COC(=O)c1ccc(S(=O)(=O)N2C[C@@H]3CCCN4CCC[C@@H]([C@H]34)[C@H]2CCCCN2CCN(C)CC2)cc1 |  | 
22 | > 138 | CC(=O)c1ccc(S(=O)(=O)N2C[C@@H]3CCCN4CCC[C@@H]([C@H]34)[C@H]2CCCC(=O)O)cc1 | > 413 | 
23 | > 118 | CC(=O)c1ccc(S(=O)(=O)N2C[C@@H]3CCCN4CCC[C@@H]([C@H]34)[C@H]2CCCC(=O)N2CCOCC2)cc1 | > 361 | 
24 | > 127 | CC(=O)c1ccc(S(=O)(=O)N2C[C@@H]3CCCN4CCC[C@@H]([C@H]34)[C@H]2CCCC(=O)N2CCC2)cc1 | > 382 | 
25 | > 130 | CC(=O)c1ccc(S(=O)(=O)N2C[C@@H]3CCCN4CCC[C@@H]([C@H]34)[C@H]2CCCC(=O)N(C)C)cc1 | > 391 | 
26 | 2.74 | CN(C)C(=O)CCC[C@@H]1[C@H]2CCCN3CCC[C@@H](CN1S(=O)(=O)c1ccc(OC(F)(F)F)cc1)[C@@H]23 | 174 | 63.3
27 | 8.58 | COC(=O)CCC[C@@H]1[C@H]2CCCN3CCC[C@@H](CN1S(=O)(=O)c1ccc(C(C)=O)cc1)[C@@H]23 | 193 | 22.5
28 | > 39.3 | COC(=O)CCC[C@@H]1[C@H]2CCCN3CCC[C@@H](CN1S(=O)(=O)c1ccc(/C(C)=N/O)cc1)[C@@H]23 | 53.9 | 
29 | > 142 | CC(O)c1ccc(S(=O)(=O)N2C[C@@H]3CCCN4CCC[C@@H]([C@H]34)[C@H]2CCCCO)cc1 (some centres undefined) | > 425 | 
